In PMC11240878, “Synthesis, enzyme inhibition assay, and molecular modeling study of novel pyrazolines linked to 4-methylsulfonylphenyl scaffold: antitumor activity and cell cycle analysis” (RSC Advances, 2024):

Tests used:
59 cancer cell lines = experiment: NCI 59 cancer cell line panel, single dose; assay type: cell-based, human; conditions: 10 μM single dose; for MG% (mean growth percent): 59 cell lines
A498 = experiment: NCI single-dose GI%, renal; assay type: cell-based, human; conditions: 10.0 μM in one dose
CAKI-1 = experiment: NCI single-dose GI%, renal; assay type: cell-based, human; conditions: CAKI-1, renal; 10.0 μM in one dose
SNB-75 = experiment: NCI single-dose GI%, CNS; assay type: cell-based, human; conditions: SNB-75, CNS; 10.0 μM in one dose
MDA-MB-468 = experiment: NCI single-dose GI%, breast; assay type: cell-based, human; conditions: MDA-MB-468, breast; 10.0 μM in one dose
UO-31 = experiment: NCI single-dose GI%, renal; assay type: cell-based, human; conditions: UO-31, renal; 10.0 μM in one dose
MCF7 = experiment: NCI single-dose GI%, breast; assay type: cell-based, human; conditions: 10.0 μM in one dose
HOP-62 = experiment: NCI single-dose GI%, NSC lung; assay type: cell-based, human; conditions: HOP-62, NSC lung; 10.0 μM in one dose
NCI-H226 = experiment: NCI single-dose GI%, NSC lung; assay type: cell-based, human; conditions: 10.0 μM in one dose
PC-3 = experiment: NCI single-dose GI%, prostate; assay type: cell-based, human; conditions: PC-3, prostate; 10.0 μM in one dose
HCT-116 = experiment: NCI single-dose GI%, colon; assay type: cell-based, human; conditions: HCT-116, colon; 10.0 μM in one dose
NCI-H522 = experiment: NCI single-dose GI%, NSC lung; assay type: cell-based, human; conditions: 10.0 μM in one dose
COLO 205 = experiment: NCI single-dose GI%, colon; assay type: cell-based, human; conditions: COLO 205, colon; 10.0 μM in one dose
SK-OV-3 = experiment: NCI single-dose GI%, ovarian; assay type: cell-based, human; conditions: SK-OV-3, ovarian; 10.0 μM in one dose
HL-60(TB) = experiment: NCI single-dose GI%, leukemia; assay type: cell-based, human; conditions: 10.0 μM in one dose
MOLT-4 = experiment: NCI single-dose GI%, leukemia; assay type: cell-based, human; conditions: MOLT-4, leukemia; 10.0 μM in one dose
T-47D = experiment: NCI single-dose GI%, breast; assay type: cell-based, human; conditions: 10.0 μM in one dose
A549/ATCC = experiment: NCI single-dose GI%, NSC lung; assay type: cell-based, human; conditions: 10.0 μM in one dose
K-562 = experiment: NCI single-dose GI%, leukemia; assay type: cell-based, human; conditions: K-562, leukemia; 10.0 μM in one dose
BT-549 = experiment: NCI single-dose GI%, breast; assay type: cell-based, human; conditions: BT-549, breast; 10.0 μM in one dose
HCT-15 = experiment: NCI single-dose GI%, colon; assay type: cell-based, human; conditions: HCT-15, colon; 10.0 μM in one dose
U251 = experiment: NCI single-dose GI%, CNS; assay type: cell-based, human; conditions: 10.0 μM in one dose
EKVX = experiment: NCI single-dose GI%, NSC lung; assay type: cell-based, human; conditions: 10.0 μM in one dose
UACC-62 = experiment: NCI single-dose GI%, melanoma; assay type: cell-based, human; conditions: UACC-62, melanoma; 10.0 μM in one dose
SK-MEL-2 = experiment: NCI single-dose GI%, melanoma; assay type: cell-based, human; conditions: SK-MEL-2, melanoma; 10.0 μM in one dose
RPMI-8226 = experiment: NCI single-dose GI%, leukemia; assay type: cell-based, human; conditions: RPMI-8226, leukemia; 10.0 μM in one dose
UACC-257 = experiment: NCI single-dose GI%, melanoma; assay type: cell-based, human; conditions: UACC-257, melanoma; 10.0 μM in one dose
HT29 = experiment: NCI single-dose GI%, colon; assay type: cell-based, human; conditions: 10.0 μM in one dose
HL-60 cells = experiment: Cell cycle analysis by flow cytometry; assay type: cell-based, human; conditions: at IC50 concentration
Method: Flow cytometry measures cell growth in different cell cycle phases (G0–G1, S, G2/M and pre-G1).[33,77] This study aimed to find out how the target compounds affect the growth of cancer cells by examining at how they change the cell cycle and cause apoptosis in HL-60 cells.
The cell cycle analysis was conducted similarly to our prior study, using the leukemia HL-60 cell line. The cells were stained with the DNA fluorochrome PI and analyzed using a FACSCalibur flow cytometer.[33,77]

MALME-3M = experiment: NCI single-dose GI%, melanoma; assay type: cell-based, human; conditions: 10.0 μM in one dose
SR = experiment: NCI single-dose GI%, leukemia; assay type: cell-based, human; conditions: 10.0 μM in one dose
SF-268 = experiment: NCI single-dose GI%, CNS; assay type: cell-based, human; conditions: SF-268, CNS; 10.0 μM in one dose

Row | melting point | SMILES | PCE (positive cytotoxic effect: ratio of cell lines with growth inhibition >10% to total cell lines) (59 cancer cell lines) | MG% (mean growth percent) (59 cancer cell lines) | GI% (A498) | GI% (CAKI-1) | GI% (SNB-75) | GI% (MDA-MB-468) | GI% (UO-31) | GI% (MCF7) | GI% (HOP-62) | GI% (NCI-H226) | GI% (PC-3) | GI% (HCT-116) | GI% (NCI-H522) | GI% (SK-OV-3) | GI% (HL-60(TB)) | GI% (MOLT-4) | GI% (T-47D) | GI% (A549/ATCC) | GI% (K-562) | other results
1 | 150 to 152 °C | COc1ccc(C2=NN(C(=O)c3ccc(S(C)(=O)=O)cc3)C(c3cc(OC)c(OC)c(OC)c3)C2)cc1OC (centres unmarked) [Compound 18q, (3-(3,4-Dimethoxyphenyl)-5-(3,4,5-trimethoxyphenyl)-4,5-dihydro-1H-pyrazol-1-yl)(4-(methylsulfonyl)phenyl)methanone] | 6/59 | 97.51% | 13% | 13% | 13% | 12% | 24% | 12% |  |  |  |  |  |  |  |  |  |  |  | 
2 | 155 to 157 °C | CS(=O)(=O)c1ccc(C(=O)N2N=C(c3ccccc3)CC2c2ccc3c(c2)OCO3)cc1 (centres unmarked) [Compound 18m, (5-(Benzo[d][1,3]dioxol-5-yl)-3-phenyl-4,5-dihydro-1H-pyrazol-1-yl)(4-(methylsulfonyl)phenyl)methanone] | 18/59 | 91.96% | 14% |  | 12% |  | 34% | 16% | 17% | 11% | 15% | 18% | 13% | 16% | 63% | 48% | 22% | 20% | 40% | GI% (COLO 205): 19%; GI% (BT-549): 14%; GI% (HCT-15): 14%
3 | 225 to 227 °C | Cc1ccc(C2CC(c3ccccc3)=NN2C(=O)c2ccc(S(C)(=O)=O)cc2)cc1 (centres unmarked) [Compound 18f, (4-(Methylsulfonyl)phenyl)(3-phenyl-5-(4-tolyl)-4,5-dihydro-1H-pyrazol-1-yl)methanone] | 21/59 | 93.80% |  | 16% | 20% | 15% | 24% | 11% | 12% | 17% | 28% | 20% | 37% |  | 14% | 30% | 16% | 16% |  | GI% (U251): 11%; GI% (EKVX): 13%; GI% (UACC-62): 12%; GI% (SK-MEL-2): 11%; GI% (RPMI-8226): 18%; GI% (UACC-257): 26%; GI% (HT29): 12%; phase of cell cycle arrest (HL-60 cells): S/G2 phase
4 | 259 to 261 °C | CS(=O)(=O)c1ccc(C(=O)N2N=C(c3ccccc3)CC2c2ccccc2)cc1 (centres unmarked) [Compound 18a, (3,5-Diphenyl-4,5-dihydro-1H-pyrazol-1-yl)(4-(methylsulfonyl)phenyl)methanone] | 11/59 | 98.11% |  |  |  |  | 12% |  |  | 11% |  |  | 18% |  | 32% | 32% |  | 18% | 19% | GI% (EKVX): 11%; GI% (MALME-3M): 11%; GI% (UACC-257): 14%; GI% (SR): 13%
5 | 169 to 171 °C | COc1ccc(C2=NN(C(=O)c3ccc(S(C)(=O)=O)cc3)C(c3ccc(OC)c(OC)c3)C2)c(OC)c1 (centres unmarked) [Compound 18p, (3-(2,4-Dimethoxyphenyl)-5-(3,4-dimethoxyphenyl)-4,5-dihydro-1H-pyrazol-1-yl)(4-(methylsulfonyl)phenyl)methanone] | 11/59 | 97.33% |  |  |  | 13% | 25% |  | 26% | 15% |  | 17% | 13% | 16% | 31% |  | 25% |  | 23% | GI% (SF-268): 11%
